Source: US10894817B2, “Fatty acid modified urocortin-2 analogs for the treatment of diabetes and chronic kidney disease” (priority 2016, dated 2021)
Read-outs that look alike come from different tables or passages of the source. Starred links: 1 amine or outer side, 2 acyl side, 3 side chain; linkers in the order of their positions; H or OH if unused. Non-standard residues stand in square brackets, D forms with d. Residues, ends and D or L forms follow the SMILES beside them. Groups on a side chain read outwards from the residue. *: point of attachment. C20 diacid = O=C(O)CCCCCCCCCCCCCCCCCCC(=O)*; C18 diacid = O=C(O)CCCCCCCCCCCCCCCCC(=O)*; γGlu = O=C(O)[C@H](CCC(=O)[*:2])N[*:1]; Palmitoyl = CCCCCCCCCCCCCCCC(=O)*; NMeI = CC[C@H](C)[C@H](NC)C(=O)O; AEEA = NCCOCCOCC(=O)O

Molecular target: T1, human CRHR2b (Homo sapiens, UniProt Q13324)
T1 construct: expressed in transfected cells; host or cells: Chinese Hamster Ovary (CHO) cells, transient transfection
T1 sequence (Q13324 1-438 isoform Q13324-2): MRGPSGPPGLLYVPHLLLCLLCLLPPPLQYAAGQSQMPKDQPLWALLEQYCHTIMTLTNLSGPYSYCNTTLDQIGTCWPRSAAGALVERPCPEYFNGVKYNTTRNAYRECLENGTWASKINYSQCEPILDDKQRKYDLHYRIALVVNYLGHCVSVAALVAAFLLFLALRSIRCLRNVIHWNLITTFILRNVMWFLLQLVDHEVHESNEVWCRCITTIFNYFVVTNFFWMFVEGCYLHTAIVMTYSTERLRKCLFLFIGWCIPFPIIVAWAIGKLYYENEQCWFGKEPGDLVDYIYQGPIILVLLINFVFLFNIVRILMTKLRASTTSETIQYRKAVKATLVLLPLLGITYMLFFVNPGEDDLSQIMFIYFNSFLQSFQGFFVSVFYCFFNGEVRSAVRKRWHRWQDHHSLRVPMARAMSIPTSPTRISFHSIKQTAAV
Assay: human CRHR2b cell-based cAMP assay
Method in brief: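 ED50 values are means ± SEM over several runs, curve-fitted from cAMP in pmol, calibrated against unlabeled-cAMP standards. Detection was HTRF competition, ratio 665/620 nm, after 30 min agonist exposure at 37 °C.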

[1] = cAMP assay, Table 26, compounds of Example 9, read-out: hCRHR2b Average EC50

Row | EC50 [1] [nM] | Structure (SMILES) | other results
1 | 500 | CC[C@H](C)[C@H](N)C(=O)N[C@H](C(=O)N[C@@H](CC(C)C)C(=O)N[C@@H](CO)C(=O)N[C@@H](CC(C)C)C(=O)N[C@@H](CC(=O)O)C(=O)N[C@H](C(=O)N1CCC[C@H]1C(=O)N[C@H](C(=O)NCC(=O)N[C@@H](CC(C)C)C(=O)N[C@@H](CC(C)C)C(=O)N[C@@H](CCC(N)=O)C(=O)N[C@H](C(=O)N[C@@H](CC(C)C)C(=O)N[C@@H](CCCCNC(=O)COCCOCCNC(=O)COCCOCCNC(=O)CC[C@H](NC(=O)CC[C@H](NC(=O)CCCCCCCCCCCCCCCCC(=O)O)C(=O)O)C(=O)O)C(=O)N[C@@H](CCC(=O)O)C(=O)N[C@@H](CCC(N)=O)C(=O)N[C@@H](CCC(=O)O)C(=O)N[C@@H](CCCCN)C(=O)N[C@@H](CCC(N)=O)C(=O)N[C@@H](CCC(=O)O)C(=O)N[C@@H](CCCCN)C(=O)N[C@@H](CCC(=O)O)C(=O)N[C@@H](CCCCN)C(=O)N[C@@H](CCC(N)=O)C(=O)N[C@@H](CCC(N)=O)C(=O)N[C@@H](C)C(=O)N[C@H](C(=O)N[C@H](C(=O)N[C@@H](CC(N)=O)C(=O)N[C@@H](C)C(=O)N[C@@H](CCC(N)=O)C(=O)N[C@H](C(=O)N[C@@H](CC(C)C)C(=O)N[C@@H](C)C(=O)N[C@@H](Cc1c[nH]cn1)C(=O)N[C@H](C(N)=O)C(C)C)[C@@H](C)CC)[C@@H](C)O)[C@@H](C)O)[C@@H](C)CC)[C@@H](C)CC)C(C)C)C(C)C [Compound 42] (H-IVLSLDVPIGLLQILK([AEEA-AEEA-γGlu-γGlu-C18 diacid])EQEKQEKEKQQATTNAQILAHV-NH2) | –
2 | 3.2 | CCCCCCCCCCCCCCCC(=O)N[C@@H](CCC(=O)N[C@@H](CCC(=O)NCCCC[C@H](NC(=O)[C@H](CCC(=O)O)NC(=O)[C@H](CCCCN)NC(=O)[C@H](CCC(=O)O)NC(=O)[C@H](CCC(N)=O)NC(=O)[C@H](CCCCN)NC(=O)[C@H](CCC(=O)O)NC(=O)[C@H](CCC(N)=O)NC(=O)[C@H](CCC(=O)O)NC(=O)[C@H](CC(C)C)NC(=O)[C@H](CC(C)C)NC(=O)[C@@H](NC(=O)[C@H](CCC(N)=O)NC(=O)[C@H](CC(C)C)NC(=O)[C@H](CC(C)C)NC(=O)CNC(=O)[C@@H](NC(=O)[C@@H]1CCCN1C(=O)[C@@H](NC(=O)[C@H](CC(=O)O)NC(=O)[C@H](CC(C)C)NC(=O)[C@H](CO)NC(=O)[C@H](CC(C)C)NC(=O)[C@@H](NC(=O)[C@@H](N)[C@@H](C)CC)C(C)C)C(C)C)[C@@H](C)CC)[C@@H](C)CC)C(=O)N[C@@H](CCC(N)=O)C(=O)N[C@@H](CCC(N)=O)C(=O)N[C@@H](C)C(=O)N[C@H](C(=O)N[C@H](C(=O)N[C@@H](CC(N)=O)C(=O)N[C@@H](C)C(=O)N[C@@H](CCCNC(=N)N)C(=O)N[C@H](C(=O)N[C@@H](CC(C)C)C(=O)N[C@@H](C)C(=O)N[C@@H](CCCNC(=N)N)C(=O)N[C@H](C(N)=O)C(C)C)[C@@H](C)CC)[C@@H](C)O)[C@@H](C)O)C(=O)O)C(=O)O [Compound 31] (H-IVLSLDVPIGLLQILLEQEKQEKEK([γGlu-γGlu-Palmitoyl])QQATTNARILARV-NH2) | –
3 | – | CC[C@H](C)[C@H](NC)C(=O)N[C@H](C(=O)N[C@H](C(=O)N[C@@H](CO)C(=O)N[C@@H](CC(C)C)C(=O)N[C@@H](CC(=O)O)C(=O)N[C@H](C(=O)N1CCC[C@H]1C(=O)N[C@H](C(=O)NCC(=O)N[C@@H](CC(C)C)C(=O)N[C@@H](CC(C)C)C(=O)N[C@@H](CCC(N)=O)C(=O)N[C@H](C(=O)N[C@@H](CC(C)C)C(=O)N[C@@H](CC(C)C)C(=O)N[C@@H](CCC(=O)O)C(=O)N[C@@H](CCC(N)=O)C(=O)N[C@@H](CCC(=O)O)C(=O)N[C@@H](CCCCN)C(=O)N[C@@H](CCC(N)=O)C(=O)N[C@@H](CCC(=O)O)C(=O)N[C@@H](CCCCN)C(=O)N[C@@H](CCC(=O)O)C(=O)N[C@@H](CCCCN)C(=O)N[C@@H](CCC(N)=O)C(=O)N[C@@H](CCC(N)=O)C(=O)N[C@@H](C)C(=O)N[C@@H](CCCCNC(=O)COCCOCCNC(=O)COCCOCCNC(=O)CC[C@H](NC(=O)CC[C@H](NC(=O)CCCCCCCCCCCCCCCCCCC(=O)O)C(=O)O)C(=O)O)C(=O)N[C@H](C(=O)N[C@@H](CC(N)=O)C(=O)N[C@@H](C)C(=O)N[C@@H](CCC(=O)O)C(=O)N[C@H](C(=O)N[C@@H](CC(C)C)C(=O)N[C@@H](C)C(=O)N[C@@H](CCC(N)=O)C(=O)N[C@H](C(N)=O)C(C)C)[C@@H](C)CC)[C@@H](C)O)[C@@H](C)CC)[C@@H](C)CC)C(C)C)[C@@H](C)O)C(C)C [Example 5] (H-[NMeI]VTSLDVPIGLLQILLEQEKQEKEKQQAK([AEEA-AEEA-γGlu-γGlu-C20 diacid])TNAEILAQV-NH2) | EC50 (cAMP assay, CHO cells transfected with human CRHR2b, mean ± SEM of runs, read-out: hCRHR2b Average EC50): 1.01 ± 0.23 nM
4 | – | CC[C@H](C)[C@H](N)C(=O)N[C@H](C(=O)N[C@@H](CC(C)C)C(=O)N[C@@H](CO)C(=O)N[C@@H](CC(C)C)C(=O)N[C@@H](CC(=O)O)C(=O)N[C@H](C(=O)N1CCC[C@H]1C(=O)N[C@H](C(=O)NCC(=O)N[C@@H](CC(C)C)C(=O)N[C@@H](CC(C)C)C(=O)N[C@@H](CCC(N)=O)C(=O)N[C@H](C(=O)N[C@@H](CC(C)C)C(=O)N[C@@H](CC(C)C)C(=O)N[C@@H](CCCCNC(=O)COCCOCCNC(=O)COCCOCCNC(=O)CC[C@H](NC(=O)CC[C@H](NC(=O)CCCCCCCCCCCCCCCCC(=O)O)C(=O)O)C(=O)O)C(=O)N[C@@H](CCC(N)=O)C(=O)N[C@@H](CCC(=O)O)C(=O)N[C@@H](CCCCN)C(=O)N[C@@H](CCC(N)=O)C(=O)N[C@@H](CCC(=O)O)C(=O)N[C@@H](CCCCN)C(=O)N[C@@H](CCC(=O)O)C(=O)N[C@@H](CCCCN)C(=O)N[C@@H](CCC(N)=O)C(=O)N[C@@H](CCC(N)=O)C(=O)N[C@@H](C)C(=O)N[C@H](C(=O)N[C@@H](CCC(=O)O)C(=O)N[C@@H](CC(N)=O)C(=O)N[C@@H](C)C(=O)N[C@@H](CCC(N)=O)C(=O)N[C@H](C(=O)N[C@@H](CC(C)C)C(=O)N[C@@H](C)C(=O)N[C@@H](CCC(N)=O)C(=O)N[C@H](C(N)=O)C(C)C)[C@@H](C)CC)[C@@H](C)O)[C@@H](C)CC)[C@@H](C)CC)C(C)C)C(C)C [Compound 53] (H-IVLSLDVPIGLLQILLK([AEEA-AEEA-γGlu-γGlu-C18 diacid])QEKQEKEKQQATENAQILAQV-NH2) | EC50: 4.01 nM
5 | 1.51 | CC[C@H](C)[C@H](N)C(=O)N[C@H](C(=O)N[C@@H](CC(C)C)C(=O)N[C@@H](CO)C(=O)N[C@@H](CC(C)C)C(=O)N[C@@H](CC(=O)O)C(=O)N[C@H](C(=O)N1CCC[C@H]1C(=O)N[C@H](C(=O)NCC(=O)N[C@@H](CC(C)C)C(=O)N[C@@H](CC(C)C)C(=O)N[C@@H](CCC(N)=O)C(=O)N[C@H](C(=O)N[C@@H](CC(C)C)C(=O)N[C@@H](CC(C)C)C(=O)N[C@@H](CCC(=O)O)C(=O)N[C@@H](CCC(N)=O)C(=O)N[C@@H](CCC(=O)O)C(=O)N[C@@H](CCCCN)C(=O)N[C@@H](CCC(N)=O)C(=O)N[C@@H](CCC(=O)O)C(=O)N[C@@H](CCCCN)C(=O)N[C@@H](CCC(=O)O)C(=O)N[C@@H](CCCCN)C(=O)N[C@@H](CCC(N)=O)C(=O)N[C@@H](CCC(N)=O)C(=O)N[C@@H](C)C(=O)N[C@@H](CCCCNC(=O)COCCOCCNC(=O)COCCOCCNC(=O)CC[C@H](NC(=O)CC[C@H](NC(=O)CCCCCCCCCCCCCCCCC(=O)O)C(=O)O)C(=O)O)C(=O)N[C@@H](CCC(=O)O)C(=O)N[C@@H](CC(N)=O)C(=O)N[C@@H](C)C(=O)N[C@@H](CCC(N)=O)C(=O)N[C@H](C(=O)N[C@@H](CC(C)C)C(=O)N[C@@H](C)C(=O)N[C@@H](CCC(N)=O)C(=O)N[C@H](C(N)=O)C(C)C)[C@@H](C)CC)[C@@H](C)CC)[C@@H](C)CC)C(C)C)C(C)C [Compound 55] (H-IVLSLDVPIGLLQILLEQEKQEKEKQQAK([AEEA-AEEA-γGlu-γGlu-C18 diacid])ENAQILAQV-NH2) | –
6 | 63.5 | CCCCCCCCCCCCCCCC(=O)N[C@@H](CCC(=O)NCCCC[C@H](NC(=O)[C@H](CCC(=O)O)NC(=O)[C@H](CCC(N)=O)NC(=O)[C@H](CCC(=O)O)NC(=O)[C@H](CC(C)C)NC(=O)[C@H](CC(C)C)NC(=O)[C@@H](NC(=O)[C@H](CCC(N)=O)NC(=O)[C@H](CC(C)C)NC(=O)[C@H](CC(C)C)NC(=O)CNC(=O)[C@@H](NC(=O)[C@@H]1CCCN1C(=O)[C@@H](NC(=O)[C@H](CC(=O)O)NC(=O)[C@H](CC(C)C)NC(=O)[C@H](CO)NC(=O)[C@H](CC(C)C)NC(=O)[C@@H](NC(=O)[C@@H](N)[C@@H](C)CC)C(C)C)C(C)C)[C@@H](C)CC)[C@@H](C)CC)C(=O)N[C@@H](CCC(N)=O)C(=O)N[C@@H](CCC(=O)O)C(=O)N[C@@H](CCCCN)C(=O)N[C@@H](CCC(=O)O)C(=O)N[C@@H](CCCCN)C(=O)N[C@@H](CCC(N)=O)C(=O)N[C@@H](CCC(N)=O)C(=O)N[C@@H](C)C(=O)N[C@H](C(=O)N[C@H](C(=O)N[C@@H](CC(N)=O)C(=O)N[C@@H](C)C(=O)N[C@@H](CCCNC(=N)N)C(=O)N[C@H](C(=O)N[C@@H](CC(C)C)C(=O)N[C@@H](C)C(=O)N[C@@H](CCCNC(=N)N)C(=O)N[C@H](C(N)=O)C(C)C)[C@@H](C)CC)[C@@H](C)O)[C@@H](C)O)C(=O)O [Compound 25] (H-IVLSLDVPIGLLQILLEQEK([γGlu-Palmitoyl])QEKEKQQATTNARILARV-NH2) | –
